For 21 compounds, Ki results are on record in ChEMBL document CHEMBL1140508, “Novel C2-purine position analogs of nitrobenzylmercaptopurine riboside as human equilibrative nucleoside transporter 1 inhibitors” (Bioorg Med Chem, 2007).

The target of this test is T1, Equilibrative nucleoside transporter 1 (Homo sapiens, UniProt Q99808).
T1 sequence (Q99808 whole entry): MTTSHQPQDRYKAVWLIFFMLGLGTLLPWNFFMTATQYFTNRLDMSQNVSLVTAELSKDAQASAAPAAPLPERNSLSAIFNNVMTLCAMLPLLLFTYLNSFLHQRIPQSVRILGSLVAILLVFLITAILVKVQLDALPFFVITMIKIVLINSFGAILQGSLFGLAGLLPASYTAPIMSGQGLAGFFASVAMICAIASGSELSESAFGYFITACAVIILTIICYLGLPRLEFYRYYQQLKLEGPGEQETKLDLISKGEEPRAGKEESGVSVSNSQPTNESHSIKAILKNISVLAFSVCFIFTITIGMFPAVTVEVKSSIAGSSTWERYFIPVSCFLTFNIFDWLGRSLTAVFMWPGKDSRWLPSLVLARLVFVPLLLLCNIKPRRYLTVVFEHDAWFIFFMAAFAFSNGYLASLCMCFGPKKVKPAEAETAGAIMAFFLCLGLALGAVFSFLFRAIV
Description: Displacement of SAENTA-fluorescein from human ENT1 in K562 cells after 45 mins by flow cytometry. It counts as cell-based. (In general: A flow cytometer gives signals particle by particle.)
With `CCNc1nc(SCc2ccc([N+](=O)[O-])cc2)c2ncn([C@@H]3O[C@H](CO)[C@@H](O)[C@H]3O)c2n1`, the Ki was determined as 24 nM.

For `CNc1nc(SCc2ccc([N+](=O)[O-])cc2)c2ncn([C@@H]3O[C@H](CO)[C@@H](O)[C@H]3O)c2n1`, the Ki came to 24 nM. That is a double-digit nanomolar value. Compound `O=[N+]([O-])c1ccc(CSc2nc(NCc3ccccc3)nc3c2ncn3[C@@H]2O[C@H](CO)[C@@H](O)[C@H]2O)cc1` registered a Ki of 247 nM.

`O=C(Nc1nc(SCc2ccc([N+](=O)[O-])cc2)c2ncn([C@@H]3O[C@H](CO)[C@@H](O)[C@H]3O)c2n1)c1ccccc1` gave a Ki of 315 nM. As to `O=[N+]([O-])c1ccc(CSc2nc(F)nc3c2ncn3[C@@H]2O[C@H](CO)[C@@H](O)[C@H]2O)cc1`, the affinity, expressed as Ki, was 2.1 nM. On to `CC(=O)Nc1nc(SCc2ccc([N+](=O)[O-])cc2)c2ncn([C@@H]3O[C@H](CO)[C@@H](O)[C@H]3O)c2n1`, for which affinity was put at a Ki of 34 nM. Compared with the last compound, the Ki is about 16-fold higher. `CCCNc1nc(SCc2ccc([N+](=O)[O-])cc2)c2ncn([C@@H]3O[C@H](CO)[C@@H](O)[C@H]3O)c2n1`: the Ki came out at 193 nM. Consider `CCCCCNc1nc(SCc2ccc([N+](=O)[O-])cc2)c2ncn([C@@H]3O[C@H](CO)[C@@H](O)[C@H]3O)c2n1`, for which the affinity corresponds to a Ki of 357 nM.

Consider `CN(C)c1nc(SCc2ccc([N+](=O)[O-])cc2)c2ncn([C@@H]3O[C@H](CO)[C@@H](O)[C@H]3O)c2n1`, for which the Ki was 429 nM. This Ki and that of the compound before are within 1.5-fold of each other. With `O=[N+]([O-])c1ccc(CSc2nc(I)nc3c2ncn3[C@@H]2O[C@H](CO)[C@@H](O)[C@H]2O)cc1` the figure was 11 nM. With `O=[N+]([O-])c1ccc(CSc2nc(N(CCO)CCO)nc3c2ncn3[C@@H]2O[C@H](CO)[C@@H](O)[C@H]2O)cc1` the figure was 243 nM; with `O=[N+]([O-])c1ccc(CSc2nc(NCCc3ccccc3)nc3c2ncn3[C@@H]2O[C@H](CO)[C@@H](O)[C@H]2O)cc1`, 394 nM; with `O=[N+]([O-])c1ccc(CSc2nc(NC3CCCCC3)nc3c2ncn3[C@@H]2O[C@H](CO)[C@@H](O)[C@H]2O)cc1`, 400 nM. With `CCCCNc1nc(SCc2ccc([N+](=O)[O-])cc2)c2ncn([C@@H]3O[C@H](CO)[C@@H](O)[C@H]3O)c2n1` the figure was 325 nM; with `Nc1nc(SCc2ccc([N+](=O)[O-])cc2)c2ncn([C@@H]3O[C@H](CO)[C@@H](O)[C@H]3O)c2n1`, 1.1 nM.

`O=[N+]([O-])c1ccc(CSc2nc(NC3CCCC3)nc3c2ncn3[C@@H]2O[C@H](CO)[C@@H](O)[C@H]2O)cc1` yielded a Ki of 125 nM. Against the preceding compound, the Ki is about 110-fold higher.

`O=[N+]([O-])c1ccc(CSc2nc(NCCO)nc3c2ncn3[C@@H]2O[C@H](CO)[C@@H](O)[C@H]2O)cc1` had an inhibition constant Ki of 86 nM. The compound `O=[N+]([O-])c1ccc(CSc2nc(NC3CCC3)nc3c2ncn3[C@@H]2O[C@H](CO)[C@@H](O)[C@H]2O)cc1` showed a Ki of 33 nM. Consider `O=[N+]([O-])c1ccc(CSc2nc(Cl)nc3c2ncn3[C@@H]2O[C@H](CO)[C@@H](O)[C@H]2O)cc1`, for which affinity was put at a Ki of 11 nM. `O=[N+]([O-])c1ccc(CSc2nc(Br)nc3c2ncn3[C@@H]2O[C@H](CO)[C@@H](O)[C@H]2O)cc1` yielded a Ki of 11 nM.

Compound `O=[N+]([O-])c1ccc(CSc2nc(NC3CC3)nc3c2ncn3[C@@H]2O[C@H](CO)[C@@H](O)[C@H]2O)cc1` showed an inhibitory constant (Ki) of 25 nM.

One may read the Ki as the dissociation constant of the complex between target and ligand, obtained from inhibition or displacement. Low readings indicate tighter binding, high ones weaker binding.
